Assay results: PMC8881512 (Nature Communications, 2022)

What was measured:
T47D cells = test: Cell proliferation by cell counting, T47D; assay type: cell-based; settings: 0.5 µM or 2 µM, time course to 8 days; Supplementary Fig. 8c, d
Description: Cell proliferation rates were determined by automated cell counter. In brief, cells were plated at density of 0.1 million cells per well in six-well plate. Cell numbers were counted by the indicated time point as stated in the figure legends.

LATS1 = target: T1, LATS1 (Homo sapiens, UniProt O95835); test: Kinome profiling; assay type: biochemical; settings: VT02956 (5 nM)
T1 construct: purchased Signalchem
T1 sequence (O95835 1-1130): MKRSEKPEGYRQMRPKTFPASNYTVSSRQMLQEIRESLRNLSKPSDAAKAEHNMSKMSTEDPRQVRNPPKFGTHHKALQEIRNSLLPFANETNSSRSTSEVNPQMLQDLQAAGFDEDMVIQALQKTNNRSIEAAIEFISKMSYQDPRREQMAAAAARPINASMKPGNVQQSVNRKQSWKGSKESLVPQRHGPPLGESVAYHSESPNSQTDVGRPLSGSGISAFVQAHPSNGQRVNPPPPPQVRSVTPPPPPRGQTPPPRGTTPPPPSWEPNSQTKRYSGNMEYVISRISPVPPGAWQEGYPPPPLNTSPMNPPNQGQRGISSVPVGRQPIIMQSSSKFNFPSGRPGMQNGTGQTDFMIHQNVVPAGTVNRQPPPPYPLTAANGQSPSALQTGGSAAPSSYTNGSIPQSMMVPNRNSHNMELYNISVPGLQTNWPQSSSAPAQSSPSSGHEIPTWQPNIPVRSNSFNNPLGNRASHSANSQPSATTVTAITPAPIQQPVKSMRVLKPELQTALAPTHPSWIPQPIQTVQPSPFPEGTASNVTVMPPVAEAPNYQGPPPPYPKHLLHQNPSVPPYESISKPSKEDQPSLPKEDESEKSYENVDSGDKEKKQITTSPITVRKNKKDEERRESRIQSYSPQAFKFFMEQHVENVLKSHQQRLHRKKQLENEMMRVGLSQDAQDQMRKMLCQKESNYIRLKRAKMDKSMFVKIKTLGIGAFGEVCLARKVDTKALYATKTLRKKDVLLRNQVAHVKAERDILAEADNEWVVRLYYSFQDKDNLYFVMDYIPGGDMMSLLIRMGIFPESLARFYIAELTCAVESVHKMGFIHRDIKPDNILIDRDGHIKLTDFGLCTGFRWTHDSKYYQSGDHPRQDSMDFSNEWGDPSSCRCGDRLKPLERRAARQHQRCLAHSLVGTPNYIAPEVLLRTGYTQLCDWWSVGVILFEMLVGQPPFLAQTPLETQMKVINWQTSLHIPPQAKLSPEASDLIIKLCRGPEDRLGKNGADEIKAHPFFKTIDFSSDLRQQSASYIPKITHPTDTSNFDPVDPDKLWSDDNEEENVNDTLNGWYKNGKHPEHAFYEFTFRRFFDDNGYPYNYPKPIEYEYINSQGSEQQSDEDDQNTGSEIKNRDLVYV

Structure (SMILES): NCC1CCN(c2nc(-c3ccncc3)nc3c(C#CCO)cccc23)CC1 [VT02956]
- T47D proliferation (T47D cells): inhibited the proliferation of MCF-7 and T47D cells
- % enzymatic activity relative to DMSO controls (LATS1): 22%
